Reference: PubChem BioAssay (NCI)
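GI50 = concentration required for 50% inhibition of growth. TGI is the concentration that stops growth completely.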

Legend:
Assay in all cases: NCI tumour cell line growth inhibition, 384-well format; in the data active = GI50 below about 0.43 µM; inactive = the rest
[1] = system: 786-0 renal
[2] = system: A498 renal
[3] = system: A549 NSCLC
[4] = system: BT-549 breast
[5] = system: CAKI-1 renal
[6] = system: CCRF-CEM leukemia
[7] = system: COLO 205 colon
[8] = system: DU-145 prostate
[9] = system: EKVX NSCLC
[10] = system: HCC-2998 colon
[11] = system: HCT-116 colon
[12] = system: HCT-15 colon
[13] = system: HL-60(TB) leukemia
[14] = system: HOP-62 NSCLC
[15] = system: HOP-92 NSCLC
[16] = system: HS 578T breast
[17] = system: HT29 colon
[18] = system: IGROV1 ovarian
[19] = system: KM12 colon
[20] = system: LOX IMVI melanoma
[21] = system: M14 melanoma
[22] = system: MALME-3M melanoma
[23] = system: MCF7 breast
[24] = system: MDA-MB-231 breast
[25] = system: MDA-MB-435 melanoma
[26] = system: MOLT-4 leukemia
[27] = system: NCI-H226 lung
[28] = system: NCI-H23 lung
[29] = system: NCI-H322M lung
[30] = system: NCI-H460 NSCLC
[31] = system: NCI/ADR-RES ovarian
[32] = system: OVCAR-3 ovarian
[33] = system: OVCAR-4 ovarian
[34] = system: OVCAR-8 ovarian
[35] = system: RPMI-8226 leukemia
[36] = system: RXF 393 renal
[37] = system: SF-268 CNS
[38] = system: SF-539 CNS
[39] = system: SK-MEL-2 melanoma
[40] = system: SK-MEL-28 melanoma
[41] = system: SK-MEL-5 melanoma
[42] = system: SK-OV-3 ovarian
[43] = system: SN12C renal
[44] = system: SNB-19 CNS
[45] = system: SNB-75 CNS
[46] = system: SR leukemia
[47] = system: SW-620 colon
[48] = system: TK-10 renal
[49] = system: U251 glioblastoma
[50] = system: UACC-257 melanoma
[51] = system: UACC-62 melanoma
[52] = system: UO-31 renal
[53] = system: ACHN renal
[54] = system: MDA-MB-468 breast
[55] = system: NCI-H522 lung
[56] = system: OVCAR-5 ovarian
[57] = system: PC-3 prostate
[58] = system: SF-295 CNS
[59] = system: T-47D breast

C[C@@]1(O)CCC[C@H]1n1c(=O)c(C(F)F)cc2cnc(NC3CCN(S(C)(=O)=O)CC3)nc21
5.15 µM: TGI [9]
6.59 µM: TGI [14]
19.1 µM: TGI [23]
95.1 nM: TGI [35]
> 100 µM: TGI [1] | TGI [2] | TGI [3] | TGI [5] | TGI [11] | TGI [15] | TGI [17] | TGI [18] | TGI [20] | TGI [24] | TGI [27] | TGI [31] | TGI [34] | TGI [42] | TGI [44] | TGI [47] | TGI [48]
1930 nM: TGI [26]
3.02 µM: TGI [45]
15.8 µM: TGI [12]
3.97 µM: TGI [50]
2890 nM: TGI [38]
4.21 µM: TGI [39]
6.38 µM: TGI [8]
1200 nM: TGI [13]
2880 nM: TGI [36]
7.15 µM: TGI [33]
4.92 µM: TGI [43]
3.16 µM: TGI [22]
9.28 µM: TGI [25]
inactive: GI50 [1] 1850 nM | GI50 [2] 1750 nM | GI50 [3] 1980 nM | GI50 [4] 866 nM | GI50 [5] 784 nM | GI50 [7] 1330 nM | GI50 [8] 1630 nM | GI50 [9] 1.9 µM | GI50 [10] 1380 nM | GI50 [12] 1790 nM | GI50 [14] 1800 nM | GI50 [15] 2050 nM | GI50 [16] 1920 nM | GI50 [17] 1830 nM | GI50 [18] 1620 nM | GI50 [19] 1070 nM | GI50 [20] 1600 nM | GI50 [21] 1470 nM | GI50 [22] 1440 nM | GI50 [24] 2340 nM | GI50 [25] 1630 nM | GI50 [26] 445 nM | GI50 [27] 1.1 µM | GI50 [28] 1680 nM | GI50 [29] 2070 nM | GI50 [31] 21 µM | GI50 [32] 1520 nM | GI50 [33] 3.04 µM | GI50 [34] 1540 nM | GI50 [36] 1440 nM | GI50 [37] 1690 nM | GI50 [38] 1300 nM | GI50 [39] 2250 nM | GI50 [40] 1210 nM | GI50 [42] 3.01 µM | GI50 [43] 1990 nM | GI50 [44] 2400 nM | GI50 [45] 1.42 µM | GI50 [48] 1.15 µM | GI50 [49] 2030 nM | GI50 [50] 1630 nM | GI50 [51] 951 nM | GI50 [52] 1010 nM
8.8 µM: TGI [49]
2180 nM: TGI [30]
3.04 µM: TGI [4]
active: GI50 [6] 357 nM | GI50 [11] 198 nM | GI50 [13] 72.1 nM | GI50 [23] 128 nM | GI50 [30] 58.9 nM | GI50 [35] 29 nM | GI50 [41] 99.3 nM | GI50 [46] 34.4 nM | GI50 [47] 94.4 nM
1770 nM: TGI [6]
4.74 µM: TGI [7]
3.3 µM: TGI [28]
1080 nM: TGI [46]
5.8 µM: TGI [29]
2940 nM: TGI [51]
2910 nM: TGI [40]
3.9 µM: TGI [10]
5.49 µM: TGI [21]
4.13 µM: TGI [52]
2280 nM: TGI [41]
3.92 µM: TGI [19]
5.57 µM: TGI [32]
4.04 µM: TGI [16] | TGI [37]

COc1c2occc2cc2ccc(=O)oc12
inactive: GI50 [1] > 100000 nM | GI50 [2] > 100000 nM | GI50 [3] > 100000 nM | GI50 [53] > 100 µM | GI50 [4] > 100000 nM | GI50 [5] > 100000 nM | GI50 [6] > 100000 nM | GI50 [7] > 100000 nM | GI50 [8] > 100000 nM | GI50 [9] 93.1 µM | GI50 [10] > 100000 nM | GI50 [12] > 100000 nM | GI50 [13] > 100000 nM | GI50 [14] > 100000 nM | GI50 [15] > 100000 nM | GI50 [16] > 100000 nM | GI50 [17] > 100000 nM | GI50 [18] > 100000 nM | GI50 [19] > 100000 nM | GI50 [21] > 100000 nM | GI50 [22] > 100000 nM | GI50 [23] > 100000 nM | GI50 [24] > 100000 nM | GI50 [25] > 100000 nM | GI50 [54] 39.8 µM | GI50 [26] > 100000 nM | GI50 [27] 55.4 µM | GI50 [28] > 100000 nM | GI50 [29] > 100000 nM | GI50 [30] > 100000 nM | GI50 [55] 60.9 µM | GI50 [31] > 100 µM | GI50 [32] > 100000 nM | GI50 [33] > 100 µM | GI50 [56] > 100 µM | GI50 [34] > 100000 nM | GI50 [57] > 100 µM | GI50 [35] > 100000 nM | GI50 [36] > 100000 nM | GI50 [37] > 100000 nM | GI50 [58] > 100 µM | GI50 [38] > 100000 nM | GI50 [39] > 100000 nM | GI50 [40] > 100000 nM | GI50 [41] > 100000 nM | GI50 [42] > 100 µM | GI50 [43] > 100000 nM | GI50 [44] > 100000 nM | GI50 [45] 73.3 µM | GI50 [46] > 100000 nM | GI50 [47] > 100000 nM | GI50 [59] > 100 µM | GI50 [48] 81.6 µM | GI50 [49] > 100000 nM | GI50 [50] > 100000 nM | GI50 [51] > 100000 nM
> 100000 nM: TGI [6] | TGI [13] | TGI [26] | TGI [30] | TGI [35] | TGI [36] | TGI [38] | TGI [40] | TGI [41] | TGI [46] | TGI [51]
> 100 µM: TGI [1] | TGI [2] | TGI [3] | TGI [53] | TGI [4] | TGI [5] | TGI [7] | TGI [8] | TGI [9] | TGI [10] | TGI [12] | TGI [14] | TGI [15] | TGI [16] | TGI [17] | TGI [18] | TGI [19] | TGI [21] | TGI [22] | TGI [23] | TGI [24] | TGI [25] | TGI [54] | TGI [27] | TGI [28] | TGI [29] | TGI [55] | TGI [31] | TGI [32] | TGI [33] | TGI [56] | TGI [34] | TGI [57] | TGI [37] | TGI [58] | TGI [39] | TGI [42] | TGI [43] | TGI [44] | TGI [45] | TGI [47] | TGI [59] | TGI [48] | TGI [49] | TGI [50]
